Assay [1] has as its system Mycobacterium tuberculosis. Kind of assay: Antimycobacterial activity against drug resistant Mycobacterium tuberculosis measured after 8 to 9 days. Format: functional. The note with it: time 8-9 day.
The test system of assay [2] is Mycobacterium tuberculosis. As to the kind of experiment: Antimycobacterial activity against multi drug resistant Mycobacterium tuberculosis measured after 8 to 9 days. Format: functional. The conditions noted are these: time 8-9 day.

Values after ≈ are worked out from the molar mass of the structure shown.

As to `Clc1ccc(-c2nnc3sc(COc4ccc(Br)cc4)nn23)cc1`, the MIC in assay [1] stood at 0.5 µg/mL (≈ 1.19 µM); in assay [2] it was 4 µg/mL (≈ 9.49 µM).
Turning to `O=[N+]([O-])c1ncn(CCCCNS(=O)(=O)c2scc(Cl)c2Cl)n1`, in assay [2], inhibition of growth (MIC) required 0.25 µg/mL (≈ 0.625 µM).
In turn, `O=[N+]([O-])c1ccc(C2=Nn3c(nnc3-c3ccc(Br)cc3)CC2)cc1` gave a minimum inhibitory concentration (MIC) in assay [1] of 0.25 µg/mL (≈ 0.628 µM).
For `O=[N+]([O-])c1ccc(C2=Nn3c(nnc3-c3ccnc(F)c3)CC2)cc1`, the MIC in assay [1] and in assay [2] was 0.25 µg/mL (≈ 0.739 µM) in each case.
For the compound `Brc1ccc(OCc2nn3c(-c4ccc(Br)cc4)nnc3s2)cc1`, the minimal inhibitory concentration (MIC) in assay [1] is 0.5 µg/mL (≈ 1.07 µM); in assay [2] it was 4 µg/mL (≈ 8.58 µM).

(Values after ChEMBL document CHEMBL5244255, “An insight on medicinal attributes of 1,2,4-triazoles” (Eur J Med Chem, 2020).)
